According to US20180230166A1 (Merck Sharp & Dohme Corp., priority 2015, published 2018):

target: T1, endogenous CETP from serum (Homo sapiens, UniProt P11597); assay: RTA assay in 95% human serum (95% RTA), CETP-catalyzed CE and TG transfer; type: biochemical; conditions: 95% human serum, endogenous CETP; read-out: RTA (95% HS)
T1 construct: yielding a concentration of approximately 15 nM endogenous CETP in the assay; from tissue; host or cells: human serum (95% of the assay volume)
T1 sequence (P11597 18-493): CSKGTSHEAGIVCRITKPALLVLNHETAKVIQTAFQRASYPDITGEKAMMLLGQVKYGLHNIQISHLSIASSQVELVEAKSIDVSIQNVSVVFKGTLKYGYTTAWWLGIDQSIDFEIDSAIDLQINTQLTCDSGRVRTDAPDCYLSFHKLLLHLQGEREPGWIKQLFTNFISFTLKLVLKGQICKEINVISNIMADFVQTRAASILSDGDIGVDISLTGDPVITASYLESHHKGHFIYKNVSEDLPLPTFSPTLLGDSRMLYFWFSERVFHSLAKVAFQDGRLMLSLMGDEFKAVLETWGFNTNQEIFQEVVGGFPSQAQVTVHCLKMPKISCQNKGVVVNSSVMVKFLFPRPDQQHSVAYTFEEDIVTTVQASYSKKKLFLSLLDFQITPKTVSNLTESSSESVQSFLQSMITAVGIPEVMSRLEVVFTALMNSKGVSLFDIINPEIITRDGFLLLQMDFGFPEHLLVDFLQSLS
Protocol: Reagents and sources are: [3H] cholesteryl oleate (GE #TRK.886), [3H] Triolein (Perkin-Elmer NET-431), Butylated hydroxyl toluene (Aldrich, #D4740-4), DOPC (Sigma, #P6354), Sodium Bromide (Fisher scientific #S255-500), PEG 8000 (Fisher, #BP233-1), and human HDL (Intracel Corp #RP-036).
Both assays measure the transfer of [3H] cholesteryl oleate or [3H] triolein from exogenous LDL to HDL.
Radiolabeled donor particles are generated by first combining 100 μl of 200 μM butylated hydroxyl toluene in CHCl3, 216 μL of 21.57 mM DOPC in EtOH, and either 500 μCi [3H]-triolein (Perkin Elmer #NET-431) or 500 μCi [3H]-cholesteryl oleate (GE #TRK886) in a glass tube. Reagents are mixed, dried under nitrogen, and then resuspended in 2 mL of 50 mM Tris, 27 μM EDTA at pH 7.4. After a brief vortex, the solution is sonicated until clear and mixed with 20 mL of fresh human serum. The mixture is incubated overnight at 37° C. The [3H] labeled LDL substrate is separated at 1.063 g/ml density by sequential ultracentrifugal flotation in NaBr according to the method of Havel, Eder, et al., 1955, and Chapman, Goldstein, et al., 1981. Once isolated the particles are dialyzed 3× in CETP buffer (50 mM Tris, pH 7.4, 100 mM NaCl, 1 mM EDTA). Human HDL is purchased from Intracel and used as the acceptor particles.
Transfer assays are performed in a 96-well v-bottom polypropylene plate. […] 1 μL of each test compound diluted in DMSO is added to 47 μL of assay cocktail per well and incubated at 37° C. for 1 hour. To initiate the transfer reaction, 2 μL radiolabeled LDL is added. After an additional 60 min of incubation at 37° C., the transfer action is terminated by precipitation of LDL with an equal volume of 20% W/V PEG 8000. The plates are centrifuged at 2000 rpm for 30 minutes at 4° C. A 40 μL aliquot of the HDL-containing supernatant is transferred to a Packard Optiplate™ with 200 μL of MicroScint™ 20. After mixing, plates are counted by liquid scintillation. Counts present in the supernatant for blanks (wells containing only HDL acceptor, CETP buffer and DMSO) are subtracted from those containing test compounds and used to correct for non-specific transfer.
For the transfer assay using endogenous CETP from serum (95% RTA), the same procedure is used except that human serum is added such that a final concentration of serum of 95% of the total assay volume is achieved, yielding a concentration of approximately 15 nM endogenous CETP in the assay. This is then combined with HDL and CETP buffer and the reaction proceeds as above and is terminated as described.
Comparison of the counts of samples with inhibitors to an uninhibited (DMSO only) positive control yield a percent inhibition. A plot of percent inhibition vs. log of inhibitor concentration, fit to a Sigmoidal 4 parameter equation is used to calculate IC50.
Starting materials are commercially available or are made using known procedures or as shown below. The examples may be synthesized using the general schemes provided below. The data reported for the examples below were obtained using the RTA assay in 95% human serum. […] When compounds of Formula I are mentioned herein, such compounds include compounds defined generically by Formula I and also the specific examples disclosed herein.

Compound	IC50
COc1ccc(-c2ccc(C(=O)O)cc2C)cc1-c1ccc(C(F)(F)F)cc1[C@@H]1CC[C@H]2[C@@H](c3cc(C(F)(F)F)cc(C(F)(F)F)c3)CC(=O)N12 [Example 2, 2″-((3S,7R,7aS)-7-(3,5-bis(trifluoromethyl)phenyl)-5-oxohexahydro-1H-pyrrolizin-3-yl)-4′-methoxy-2-methyl-4″-(trifluoromethyl)-[1,1′:3′,1″-terphenyl]-4-carboxylic acid]	1830 nM

same assay, conditions: RTA assay in 95% human serum; read-out: IC50

Compound	IC50
COc1ccc(-c2ccc(C(=O)O)cc2C)cc1-c1ccc(C(F)(F)F)cc1[C@@H]1CC[C@H]2[C@@H](c3cc(F)cc(C(F)(F)F)c3)SC(=O)N12 [Example 6, 2″-{(1R,5S,7aS)-1-[3-flluoro-5-(trifluoromethyl)phenyl]-3-oxotetrahydro-1H-pyrrolo[1,2-c][1,3]thiazol-5-yl}-4′-methoxy-2-methyl-4″-(trifluoromethyl)-1,1′:3′,1″-terphenyl-4-carboxylic acid]	926 nM
COc1ccc(-c2ccc(C(=O)O)cc2C)cc1-c1ccc(C(F)(F)F)cc1[C@@H]1CC[C@H]2[C@@H](c3cc(F)cc(C(F)(F)F)c3)CC(=O)N12 [Example 20]	4730 nM
COc1ncc(-c2c(C)cc(C(=O)O)cc2C)cc1-c1ccc(C(F)(F)F)cc1[C@@H]1CC[C@H]2[C@@H](c3ccnc(C(F)(F)F)c3)CC(=O)N12 [Example 21, 4-{6-methoxy-5-[2-{(3S,7R,7aS)-5-oxo-7-[2-(trifluoromethyl)pyridin-4-yl]hexahydro-1H-pyrrolizin-3-yl}-4-(trifluoromethyl)phenyl]pyridin-3-yl}-3,5-dimethylbenzoic acid]	2900 nM
COc1ncc(-c2c(C)cc(C(=O)O)cc2C)cc1-c1ccc(C(F)(F)F)cc1[C@@H]1CC[C@H]2[C@@H](c3cc(C(F)(F)F)cc(C(F)(F)F)c3)SC(=O)N12 [Example 3, 4-{5-[2-{(1R,5S,7aS)-1-[3,5-bis(trifluoromethyl)phenyl]-3-oxotetrahydro-1H-pyrrolo[1,2-c][1,3]thiazol-5-yl}-4-(trifluoromethyl)phenyl]-6-methoxypyridin-3-yl}-3,5-dimethylbenzoic acid]	164 nM
COc1ncc(-c2c(C)cc(C(=O)O)cc2C)cc1-c1ccc(C(F)(F)F)cc1[C@@H]1CC[C@H]2[C@@H](c3ccnc(C(F)(F)F)c3)SC(=O)N12 [Example 8, 4-{6-methoxy-5-[2-{(1R,5S,7aS)-3-oxo-1-[2-(trifluoromethyl)pyridin-4-yl]tetrahydro-1H-pyrrolo[1,2-c][1,3]thiazol-5-yl}-4-(trifluoromethyl)phenyl]pyridin-3-yl}-3,5-dimethylbenzoic acid]	143 nM
COc1cc(F)c(C(C)C)cc1-c1ccc(C(F)(F)F)cc1[C@@H]1CC[C@H]2[C@@H](c3cc(F)cc(C(F)(F)F)c3)SC(=O)N12 [Example 7, (1R,5S,7aS)-5-[4′-fluoro-2′-methoxy-5′-(1-methylethyl)-4-(trifluoromethyl)biphenyl-2-yl]-1-[3-fluoro-5-(trifluoromethyl)phenyl]tetrahydro-1H-pyrrolo[1,2-c][1,3]thiazol-3-one]	2000 nM
COc1ncc(-c2c(C)cc(C(=O)O)cc2C)cc1-c1ccc(C(F)(F)F)cc1[C@@H]1CC[C@H]2[C@@H](c3cc(F)cc(C(F)(F)F)c3)CC(=O)N12 [Example 17, 4-{5-[2-{(3S,7R,7aS)-7-[3-fluoro-5-(trifluoromethyl)phenyl]-5-oxohexahydro-1H-pyrrolizin-3-yl}-4-(trifluoromethyl)phenyl]-6-methoxypyridin-3-yl}-3,5-dimethylbenzoic acid]	328 nM
COc1cc(F)c(C(C)C)cc1-c1ccc(C(F)(F)F)cc1[C@@H]1CC[C@H]2[C@@H](c3ccnc(C(F)(F)F)c3)SC(=O)N12 [Example 11, (1R,5S,7aS)-5-[4′-fluoro-2′-methoxy-5′-(1-methylethyl)-4-(trifluoromethyl)biphenyl-2-yl]-1-[2-(trifluoromethyl)pyridin-4-yl]tetrahydro-1H-pyrrolo[1,2-c][1,3]thiazol-3-one]	2520 nM
COc1cc(F)c(C(C)C)cc1-c1ccc(C(F)(F)F)cc1[C@@H]1CC[C@H]2[C@@H](c3cc(F)cc(C(F)(F)F)c3)CC(=O)N12 [Example 18, (1R,5S,7aS)-5-[4′-fluoro-2′-methoxy-5′-(1-methylethyl)-4-(trifluoromethyl)biphenyl-2-yl]-1-[3-fluoro-5-(trifluoromethyl)phenyl]hexahydro-3H-pyrrolizin-3-one]	2690 nM
COc1ncc(-c2ccc(C(=O)O)cc2C)cc1-c1ccc(C(F)(F)F)cc1[C@@H]1CC[C@H]2[C@@H](c3ccnc(C(F)(F)F)c3)SC(=O)N12 [Example 10, 4-{6-methoxy-5-[2-{(1R,5S,7aS)-3-oxo-1-[2-(trifluoromethyl)pyridin-4-yl]tetrahydro-1H-pyrrolo[1,2-c][1,3]thiazol-5-yl}-4-(trifluoromethyl)phenyl]pyridin-3-yl}-3-methylbenzoic acid]	3940 nM
COc1ncc(-c2ccc(C(=O)O)cc2C)cc1-c1ccc(C(F)(F)F)cc1[C@@H]1CC[C@H]2[C@@H](c3cc(F)cc(C(F)(F)F)c3)SC(=O)N12 [Example 5, 4-{5-[2-{(1R,5S,7aS)-1-[3-fluoro-5-(trifluoromethyl)phenyl]-3-oxotetrahydro-1H-pyrrolo[1,2-c][1,3]thiazol-5-yl}-4-(trifluoromethyl)phenyl]-6-methoxypyridin-3-yl}-3-methylbenzoic acid]	285 nM
COc1ncc(-c2c(C)cc(C(=O)O)cc2C)cc1-c1ccc(C(F)(F)F)cc1[C@@H]1CC[C@H]2[C@@H](c3cc(C(F)(F)F)cc(C(F)(F)F)c3)CC(=O)N12 [Example 14, 4-{5-[2-{(3S,7R,7aS)-7-[3,5-bis(trifluoromethyl)phenyl]-5-oxohexahydro-1H-pyrrolizin-3-yl}-4-(trifluoromethyl)phenyl]-6-methoxypyridin-3-yl}-3,5-dimethylbenzoic acid]	321 nM
COc1ccc(-c2ccc(C(=O)O)cc2C)cc1-c1ccc(C(F)(F)F)cc1[C@@H]1CC[C@H]2[C@@H](c3ccnc(C(F)(F)F)c3)SC(=O)N12 [Example 9, 4′-methoxy-2-methyl-2″-{(1R,5S,7aS)-3-oxo-1-[2-(trifluoromethyl)pyridin-4-yl]tetrahydro-1H-pyrrolo[1,2-c][1,3]thiazol-5-yl}-4″-(trifluoromethyl)-1,1′:3′,1″-terphenyl-4-carboxylic acid]	1990 nM
COc1ncc(-c2ccc(C(=O)O)cc2C)cc1-c1ccc(C(F)(F)F)cc1[C@@H]1CC[C@H]2[C@@H](c3cc(C(F)(F)F)cc(C(F)(F)F)c3)CC(=O)N12 [Example 16, 4-{5-[2-{(3S,7R,7aS)-7-[3,5-bis(trifluoromethyl)phenyl]-5-oxohexahydro-1H-pyrrolizin-3-yl}-4-(trifluoromethyl)phenyl]-6-methoxypyridin-3-yl}-3-methylbenzoic acid]	2940 nM
COc1ccc([C@H]2CC[C@H](C(=O)O)CC2)cc1-c1ccc(C(F)(F)F)cc1[C@@H]1CC[C@H]2[C@@H](c3cc(F)cc(C(F)(F)F)c3)SC(=O)N12 [Example 12, trans-4-[2′-{(1R,5S,7aS)-1-[3-fluoro-5-(trifluoromethyl)phenyl]-3-oxotetrahydro-1H-pyrrolo[1,2-c][1,3]thiazol-5-yl}-6-methoxy-4′-(trifluoromethyl)biphenyl-3-yl]cyclohexanecarboxylic acid]	1500 nM
